Results reported in the supplement of paper PMC10307832.

Assays:
Experiment in all cases: relative viability (nuclei count vs DMSO), 5 days (fraction); higher = more cells survive
LCLC-97TM1 = conditions: first compound 8 µM
Procedure, shortened: (§1)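 Relative viability was taken as the ratio of nuclei in treated wells to nuclei in vehicle wells. Lung cancer cell lines in 1536-well plates received compounds by pin tool one day after seeding, either one drug alone or a fixed anchor-drug dose plus five library-drug doses (not always all listed) in √10 steps. Nuclei were counted on 4× images after 5 days of treatment, and values are medians of duplicate plates.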

HCC-827 = system: HCC-827
Procedure, shortened: as §1

NCI-H322M = system: NCI-H322M
Procedure, shortened: as §1

LC-2-ad = system: LC-2-ad
Procedure, shortened: as §1

NCI-H1944 = system: NCI-H1944
Procedure, shortened: as §1

NCI-H460 = system: NCI-H460
Procedure, shortened: as §1

HARA = system: HARA
Procedure, shortened: as §1

NCI-H1437 = system: NCI-H1437
Procedure, shortened: as §1

HCC-15 = system: HCC-15
Procedure, shortened: as §1

PC-3 [JPC-3] = system: PC-3 [JPC-3]
Procedure, shortened: as §1

NCI-H1792 = system: NCI-H1792
Procedure, shortened: as §1

NCI-H2126 = system: NCI-H2126
Procedure, shortened: as §1

O=c1[nH]c2ccccc2n1C1CCN(CCCC(c2ccc(F)cc2)c2ccc(F)cc2)CC1 [Pimozide] + CC1(C)CCC(c2ccc(Cl)cc2)=C(CN2CCN(c3ccc(C(=O)NS(=O)(=O)c4ccc(N[C@H](CCN5CCOCC5)CSc5ccccc5)c(S(=O)(=O)C(F)(F)F)c4)cc3)CC2)C1 [Navitoclax] (partner 0.5 µM) was tested, and the relative viability (LCLC-97TM1) was 0.402, the relative viability (HCC-827; first compound 0.253 µM) was 1.03 and the relative viability (HCC-827; first compound 0.8 µM) was 0.897. The relative viability (HCC-827; first compound 2.53 µM) was 0.999, the relative viability (HCC-827; first compound 8 µM) was 0.981 and the relative viability (NCI-H322M; first compound 0.253 µM) was 1.21. The relative viability (NCI-H322M; first compound 0.8 µM) was 1.14, the relative viability (NCI-H322M; first compound 2.53 µM) was 1.21 and the relative viability (NCI-H322M; first compound 8 µM) was 1.11. For the same molecule, the relative viability (LC-2-ad; first compound 0.08 µM) was 0.498, the relative viability (LC-2-ad; first compound 0.253 µM) was 0.509 and the relative viability (LC-2-ad; first compound 0.8 µM) was 0.286. For the same molecule, the relative viability (LC-2-ad; first compound 2.53 µM) was 0.421, the relative viability (LC-2-ad; first compound 8 µM) was 0.392 and the relative viability (NCI-H1944; first compound 0.08 µM) was 0.945. The relative viability (NCI-H1944; first compound 0.253 µM) was 1.05, the relative viability (NCI-H1944; first compound 0.8 µM) was 0.926 and the relative viability (NCI-H1944; first compound 2.53 µM) was 1.03. It also gave a relative viability (NCI-H1944; first compound 8 µM) of 0.995, a relative viability (NCI-H460; first compound 0.08 µM) of 1.19 and a relative viability (NCI-H460; first compound 0.253 µM) of 1.12. It also gave a relative viability (NCI-H460; first compound 0.8 µM) of 1.06, a relative viability (NCI-H460; first compound 2.53 µM) of 1.06 and a relative viability (NCI-H460; first compound 8 µM) of 0.957. For the same molecule, the relative viability (HARA; first compound 0.08 µM) was 1.11, the relative viability (HARA; first compound 0.253 µM) was 1.18 and the relative viability (HARA; first compound 0.8 µM) was 1.1. It also gave a relative viability (HARA; first compound 2.53 µM) of 1.12, a relative viability (HARA; first compound 8 µM) of 1.14 and a relative viability (NCI-H1437; first compound 0.08 µM) of 1.07. For the same molecule, the relative viability (NCI-H1437; first compound 0.253 µM) was 1.06, the relative viability (NCI-H1437; first compound 0.8 µM) was 1.06 and the relative viability (NCI-H1437; first compound 2.53 µM) was 0.993. For the same molecule, the relative viability (NCI-H1437; first compound 8 µM) was 0.81, the relative viability (HCC-15; first compound 0.08 µM) was 0.797 and the relative viability (HCC-15; first compound 0.253 µM) was 0.724. The relative viability (HCC-15; first compound 0.8 µM) was 0.66, the relative viability (HCC-15; first compound 2.53 µM) was 0.636 and the relative viability (HCC-15; first compound 8 µM) was 0.621. For the same molecule, the relative viability (PC-3 [JPC-3]; first compound 0.253 µM) was 0.73, the relative viability (PC-3 [JPC-3]; first compound 0.8 µM) was 0.798 and the relative viability (PC-3 [JPC-3]; first compound 2.53 µM) was 0.761. The relative viability (PC-3 [JPC-3]; first compound 8 µM) was 0.732, the relative viability (NCI-H1792; first compound 0.08 µM) was 0.647 and the relative viability (NCI-H1792; first compound 0.253 µM) was 0.629. For the same molecule, the relative viability (NCI-H1792; first compound 0.8 µM) was 0.619, the relative viability (NCI-H1792; first compound 2.53 µM) was 0.599 and the relative viability (NCI-H1792; first compound 8 µM) was 0.649. For the same molecule, the relative viability (NCI-H2126; first compound 0.08 µM) was 0.835, the relative viability (NCI-H2126; first compound 0.253 µM) was 0.827 and the relative viability (NCI-H2126; first compound 0.8 µM) was 0.841. For the same molecule, the relative viability (NCI-H2126; first compound 2.53 µM) was 0.824 and the relative viability (NCI-H2126; first compound 8 µM) was 0.868.
